Experimental data: patent US11446304B2, “CDC-7-inhibitor compounds and use thereof for the treatment of neurological conditions” (CONSEJO SUPERIOR DE INVESTIGACIONES CIENTIFICAS (CSIC), priority 2017, dated 2022)
Values belong to the molecule of their own block, whether it stands above or below them.

Legend:
[1] = PAMPA blood-brain barrier permeation (porcine brain lipid); format: in vitro ADME; conditions: for Papp at 2.5 h: PAMPA-BHE, PBS pH 7.4/EtOH 70:30, 2 h 30 min at 25° C., mean ± SD, read-out: Pe; for PAMPA prediction of central nervous system (CNS) penetration: from Pe in PAMPA-BHE
From the text: An essential requirement for drugs for the treatment of neurodegenerative diseases is the ability to cross the blood-brain barrier (BBB), as otherwise they could not act on the target of interest. Therefore, for compounds that are not permeable or located in the area of uncertainty, it may be necessary to properly convey a pharmaceutical formulation through methods known to an expert in the field, such as encapsulation. This capability can be predicted in vitro using a method known by the acronym PAMPA (Parallel Artificial Membrane Permeability Assay) described by Di et al (Di, L.; Kerns, E. H.; Fan, K.; McConnell, O. J.; Carter, G. T. Eur. J. Med. Chem. 2003, 38 (3), 223-232) and which has subsequently been fine-tuned in our research group. This method allows predicting the effective permeability through artificial membranes by means of a passive diffusion process.
First of all, it is necessary to validate the method, for which 10 commercial compounds are used whose penetration capacity in the central nervous system (CNS) is known and which are to be specified below, obtaining in this case a good linear correlation between the experimental permeability values (Pe) and those described (FIG. 1). This correlation line obtained following the pattern described in the bibliography allows establishing the limits to predict whether or not a compound can cross the blood-brain barrier. Thus, a compound is considered BBB permeable (SNC+) if it has a permeability>4.48×10^−6 cm-s^−1.
For the procedure, between 3-5 mg of caffeine, desipramine, enoxacin, hydrocortisone, ofloxacin, piroxicam and testosterone, 12 mg of promazine and 25 mg of atenolol and verapamil were taken and dissolved in EtOH (1000 μL). 100 μL of these solutions were taken and EtOH (1400 μL) and phosphate buffer (PBS) pH=7.4 (3500 μL) were added in order to achieve a final EtOH concentration of 30% v/v in solution. Finally, the dissolutions were filtered.
On the other hand, a PBS/EtOH solution (70:30) was added to each well of the acceptance plate (180 μL). The donor plate was impregnated with a porcine brain lipid solution (4 μL) dissolved in dodecane (20 mg mL^−1). After 5 min, dissolution of each compound was added to this plate (180 μL).
Of the compounds 1 to 10 evaluated, 1-2 mg were taken and dissolved in EtOH (1500 μL) and phosphate buffer (PBS) pH=7.4 (3500 μL), filtered and added to the donor plate. With these solutions, the wavelengths at which the compounds absorb are determined and the initial absorbance levels at these wavelengths are measured using a UV absorbance reader. Each sample was analyzed from two to five wavelengths, in three wells and in two independent experiments.
The donor plate was then deposited on the acceptor forming a kind of “sandwich” and incubated for 2 hours and 30 minutes at 25° C. In this way, the compounds will pass from the donor plate to the acceptor plate through the porcine brain lipid by passive diffusion. After that time, the donor plate is carefully removed and the concentration and final absorbance of both commercial and synthesized compounds is determined. The results obtained are expressed as the mean of the measurements [standard deviation (SD)] of the different experiments carried out and are shown in table 2.

[2] = biological target: human recombinant CDC7/DBF4 (Homo sapiens, UniProt O00311); experiment: CDC7 inhibition measurement (LanthaScreen Eu kinase binding, FRET); conditions: CDC7/DBF4 0.5 nM, 60 min at room temperature; read-out: CDC7 Lantha ™ CI50
human recombinant CDC7/DBF4, sequence (O00311 whole entry): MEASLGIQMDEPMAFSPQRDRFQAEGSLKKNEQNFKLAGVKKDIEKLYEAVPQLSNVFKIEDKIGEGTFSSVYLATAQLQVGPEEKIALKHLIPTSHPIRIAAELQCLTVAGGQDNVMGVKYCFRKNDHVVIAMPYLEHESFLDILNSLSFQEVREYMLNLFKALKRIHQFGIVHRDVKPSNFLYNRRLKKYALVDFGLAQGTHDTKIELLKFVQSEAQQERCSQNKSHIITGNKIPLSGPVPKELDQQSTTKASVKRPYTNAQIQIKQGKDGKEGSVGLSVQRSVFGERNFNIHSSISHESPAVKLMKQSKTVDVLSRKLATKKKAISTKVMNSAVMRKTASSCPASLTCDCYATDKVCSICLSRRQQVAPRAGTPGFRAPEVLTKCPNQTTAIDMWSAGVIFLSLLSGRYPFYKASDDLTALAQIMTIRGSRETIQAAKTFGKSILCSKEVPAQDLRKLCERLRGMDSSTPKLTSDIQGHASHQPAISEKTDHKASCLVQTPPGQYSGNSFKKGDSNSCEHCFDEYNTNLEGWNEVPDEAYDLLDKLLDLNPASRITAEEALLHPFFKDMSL
human recombinant CDC7/DBF4, sequence (Q9UBU7 whole entry partner): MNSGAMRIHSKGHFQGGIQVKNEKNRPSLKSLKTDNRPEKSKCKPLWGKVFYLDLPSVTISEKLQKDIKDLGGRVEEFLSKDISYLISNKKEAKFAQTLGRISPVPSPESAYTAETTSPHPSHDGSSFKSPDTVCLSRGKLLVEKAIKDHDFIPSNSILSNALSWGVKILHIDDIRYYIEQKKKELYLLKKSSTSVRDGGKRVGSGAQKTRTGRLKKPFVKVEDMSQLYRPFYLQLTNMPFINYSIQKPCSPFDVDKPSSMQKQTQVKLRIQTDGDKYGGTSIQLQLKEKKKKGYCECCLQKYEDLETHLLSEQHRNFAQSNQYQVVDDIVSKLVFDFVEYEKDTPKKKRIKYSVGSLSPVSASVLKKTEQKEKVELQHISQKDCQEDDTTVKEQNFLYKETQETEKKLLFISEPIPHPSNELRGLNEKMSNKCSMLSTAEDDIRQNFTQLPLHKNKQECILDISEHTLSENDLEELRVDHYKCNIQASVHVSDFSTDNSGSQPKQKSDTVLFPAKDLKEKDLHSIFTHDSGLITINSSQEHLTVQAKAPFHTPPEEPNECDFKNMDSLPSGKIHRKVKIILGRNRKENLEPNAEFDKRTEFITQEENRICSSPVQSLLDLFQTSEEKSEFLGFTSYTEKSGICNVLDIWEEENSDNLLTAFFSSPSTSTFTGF
From the text: The LanthaScreen Eu kinases inhibition assay uses an Alexa marker Fluor™ that binds to a kinase and is detected by the addition of an Eu-marked antibody. The binding of the marker and the antibody to the kinase results in a high degree of FRET, while the displacement of the marker by an inhibitor results in a loss of FRET. Unlike many other kinase activity tests, this is a simple mix and read test, with no developmental stages. This test method has been developed by Life Technologies and identifies competitive ATP kinase inhibitors, making them suitable for the detection of any compound that binds to the ATP site.
The compounds are evaluated at 1% DMSO (final) in the well. A mixture of human recombinant CDC7/DBF4 (0.5 nM), Eu-antiGST antibody (2 nM) and AlexaFluor marker (1 nM) has been used in a buffer of 50 mM HEPES pH 7.5, 0.01% BRIJ-35, 10 mM MgCl2, 1 mM EGTA in white plates of […], low volume, coded (Greiner cat. #784207), 160 nL (100×100% DMSO compound), 3.84 μL (buffer with CDC7/DBF4), 8.0 μL (antibody), 4.0 μL (marker) are added. Agitate 30 s and incubate at room temperature for 60 min. Then measure the fluorescence in the plate reader and analyze the data (Table 1).

SMILES: Clc1ccccc1CSc1ncnc2[nH]cnc12 [Compound 14, 6-((2-Chlorobenzyl)thio)-9H-purine]
Papp at 2.5 h [1]: 18.1 ± 1.2 ×10⁻⁶ cm/s | PAMPA prediction of central nervous system (CNS) penetration [1]: SNC+ (a compound is considered BBB permeable (SNC+) if it has a permeability>4.48×10^−6 cm-s^−1) | melting point: 200 to 202 °C | IC50 [2]: 92 nM

SMILES: COc1cccc(CSc2ncnc3[nH]cnc23)c1 [Compound 15, 6-((3-methoxybenzyl)thio)-9H-purine]
Papp at 2.5 h [1]: 5.3 ± 0.8 ×10⁻⁶ cm/s | PAMPA prediction of central nervous system (CNS) penetration [1]: SNC+ (a compound is considered BBB permeable (SNC+) if it has a permeability>4.48×10^−6 cm-s^−1)

SMILES: CCOC(=O)c1ccccc1CSc1ncnc2[nH]cnc12 [Compound 16, Ethyl 2-(((9H-Purine-6-yl)thio)methyl)benzoate]
Papp at 2.5 h [1]: 9.7 ± 1.4 ×10⁻⁶ cm/s | PAMPA prediction of central nervous system (CNS) penetration [1]: SNC+ (a compound is considered BBB permeable (SNC+) if it has a permeability>4.48×10^−6 cm-s^−1) | melting point: 145 to 147 °C | IC50 [2]: 2790 nM

SMILES: c1ccc(COc2[nH]cnc3ncnc2-3)cc1 [Compound 20, 6-((benzyl)oxy)-9H-purine]
Papp at 2.5 h [1]: 2.9 ± 0.9 ×10⁻⁶ cm/s | PAMPA prediction of central nervous system (CNS) penetration [1]: SNC+/− | IC50 [2]: 167 nM

SMILES: Brc1ccc(COc2ncnc3[nH]cnc23)cc1 [Compound 21, 6-((4-Bromobenzyl)oxy)-9H-purine]
Papp at 2.5 h [1]: 14 ± 1.4 ×10⁻⁶ cm/s | PAMPA prediction of central nervous system (CNS) penetration [1]: SNC+ (a compound is considered BBB permeable (SNC+) if it has a permeability>4.48×10^−6 cm-s^−1)

Now from value to molecule, other results behind:

Papp at 2.5 h [1]: 5.5 ± 1.3 ×10⁻⁶ cm/s | IC50 [2]: 127 nM
SMILES: O=[N+]([O-])c1ccc(CSc2ncnc3[nH]cnc23)cc1 [Compound 17, 6-((4-nitrobenzyl)thio)-9H-purine]
PAMPA prediction of central nervous system (CNS) penetration [1]: SNC+ (a compound is considered BBB permeable (SNC+) if it has a permeability>4.48×10^−6 cm-s^−1)

melting point: 223 to 225 °C
SMILES: CC(=O)Nc1ccc(CSc2ncnc3[nH]cnc23)cc1 [Compound 18, 6-((4-Acetamidobenzyl)thio)-9H-purine]

Papp at 2.5 h [1]: 2 ± 0.7 ×10⁻⁶ cm/s | PAMPA prediction of central nervous system (CNS) penetration [1]: SNC+/− | melting point: 228 to 230 °C
SMILES: N#Cc1ccc(CSc2ncnc3[nH]cnc23)cc1 [Compound 19, 6-((4-Cyanobenzyl)thio)-9H-purine]

Papp at 2.5 h [1]: 13.5 ± 1.6 ×10⁻⁶ cm/s | IC50 [2]: 367 nM
SMILES: FC(F)(F)c1ccc(CSc2ncnc3[nH]cnc23)cc1 [Compound 22, 6-(4-(trifluoromethyl)benzylthio)-9H-purine]
PAMPA prediction of central nervous system (CNS) penetration [1]: SNC+ (a compound is considered BBB permeable (SNC+) if it has a permeability>4.48×10^−6 cm-s^−1)

Papp at 2.5 h [1]: 17.8 ± 0.7 ×10⁻⁶ cm/s | melting point: 203 to 205 °C | IC50 [2]: 146 nM
SMILES: CSc1ccc(CSc2ncnc3[nH]cnc23)cc1 [Compound 23, 6-((4-(Methylthio)benzyl)thio)-9H-purine]
PAMPA prediction of central nervous system (CNS) penetration [1]: SNC+ (a compound is considered BBB permeable (SNC+) if it has a permeability>4.48×10^−6 cm-s^−1)
